Laboratory results as given in US7615361B2, “Toxicity screening methods” (Ceetox, Inc., priority 2006, dated 2009).
Where two headings read alike, the source gives them in different places.

Columns and labels:
HUVEC = assay: Membrane lipid peroxidation (8-isoprostane ELISA); conditions: 24 HR
Procedure: (§1) Lipid Peroxidation Measured as 8-Isoprostane (8-ISO): 8-ISO levels were determined using an ELISA. 8-ISO is a member of a family of eicosanoids produced non-enzymatically by random oxidation of tissue phospholipids by oxygen radicals. Therefore, an increase in 8-ISO is an indirect measure of increased lipid peroxidation (Vacchiano and Tempel, 1994). At the end of the exposure period, plates were either analyzed immediately or stored at −80° C. until needed for analysis. Color development, which is […] to the amount of 8-ISO present in the sample, was read on a Packard Fusion or equivalent plate reader at 415 nm.
(§2) Lipid Peroxidation Measured as 8-Isoprostane (8-ISO): Background absorbance produced from Ellman's reagent is subtracted from all wells. Non-specific binding is subtracted from the maximum binding wells to give a corrected maximum binding expressed as Bo. The percent of bound (B) relative to maximum binding capacity (Bo) for all unknown samples and for standards was determined an expressed as (% B/Bo). The % B/Bo for standards was plotted against the log of 8-ISO added to yield the final standard curve. This curve was used to convert % B/Bo to pg 8-ISO/mL of sample.
(§3) The test compound consisted of two parts mixed in a constant ratio of 5:1. The final test mixture consisted of Test mix 1 and Test mix 2, which were received as frozen solutions. The test mixture was tested in a ratio of 5:1 COMP A in five different cell types which included the following: SK-MEL28, human hepatocytes, HUVEC, C32, and NHEM cells. Cells were seeded into 96-well plates and cultured in medium containing 10% bovine serum. Following an equilibration period of 48 hr, the cells were treated with the test compound mix at concentrations of COMP A (μg/mL)=(250:50), (125:25), (25:12.5), (12.5:2.5), (2.5:1.25), (1.25:0.25), and (0.25:0.05) for 24 hr (overnight) at 37° C. in 5% CO2. […] Following an equilibration period of 4 hr, the cells were treated with the test compound mix at concentrations of COMP A (μg/mL)=(250:50), (125:25), (25:12.5), (12.5:2.5), (2.5:1.25), (1.25:0.25), and (0.25:0.05) for 24 hr (overnight) at 37° C. in 5% CO2.
(§4) Experimental Protocol: The test compounds were shipped on dry ice for testing. The compounds were stored frozen at −80° C. until needed. Dosing solutions were prepared in complete culture medium. SK-MEL28, human hepatocytes, HUVEC, C32, and NHEM cells were used as the test systems. Cells were seeded into 96-well plates and allowed to equilibrate for approximately 48 hr. Following the equilibration period the cells were exposed to the test compound mix at concentrations of COMP A (μg/mL)=(250:50), (125:25), (25:12.5), (12.5:2.5), (2.5:1.25), (1.25:0.25), and (0.25:0.05). Solubility was determined by Nephalometry techniques immediately after dosing and prior to harvesting the cells at 24 hr. Following the exposure period, the cells or their supernatant (culture medium) were analyzed for changes in cell proliferation, membrane leakage, mitochondrial function, oxidative stress, and apoptosis. The resultant exposure concentration response curves were graphed and analyzed for determining the concentration that produced a half maximal response or TC50.

human hepatocytes = assay: Membrane lipid peroxidation (8-isoprostane ELISA); conditions: 24 HR
Procedure: as §1, §2, §3, §4

NHEM cells = assay: Membrane lipid peroxidation (8-isoprostane ELISA); conditions: 24 HR
Procedure: as §1, §2, §3, §4

C32 cells = assay: Membrane lipid peroxidation (8-isoprostane ELISA); conditions: C32, 24 HR
Procedure: as §1, §2, §3, §4

MTT reduction = format: cell-based; conditions: read-out: MTT TC50
Procedure: Tetrazolium Dye Reduction: 3-[4,5-dimethylthiazol-2-yl]
Dosing solutions were prepared in complete culture medium.

SK-MEL28 cells = assay: Membrane lipid peroxidation (8-isoprostane ELISA)
Procedure: as §1, §2
The test compound consisted of two parts mixed in a constant ratio of 5:1. The final test mixture consisted of Test mix 1 and Test mix 2, which were received as frozen solutions. The test mixture was tested in a ratio of 5:1 COMP A in five different cell types which included the following: SK-MEL28, human hepatocytes, HUVEC, C32, and NHEM cells. Cells were seeded into 96-well plates and cultured in medium containing 10% bovine serum. […]
as §4, with “Solubility was determined by Nephalometry techniques immediately after dosing and prior to harvesting the cells at 24 hr.” left out

[1] = SK-MEL28, 24 HR, COMP A (LOW) / controls #2
[2] = SK-MEL28, 72 HR, COMP A (LOW) / controls #2

SMILES | Membrane Lipid Peroxidation (HUVEC) | Membrane Lipid Peroxidation (human hepatocytes) | Membrane Lipid Peroxidation (NHEM cells) | Membrane Lipid Peroxidation (C32 cells) | CC50 at 24 h (MTT reduction; human, C32 cells, C32, 24 HR) | CC50 at 24 h (MTT reduction; human, HUVEC) | Membrane Lipid Peroxidation (SK-MEL28 cells; SK-MEL28, 24 HR) | Membrane Lipid Peroxidation (SK-MEL28 cells; [1]) | Membrane Lipid Peroxidation (SK-MEL28 cells; [2]) | CC50 at 24 h (MTT reduction; human hepatocytes)
CC[C@@]1(O)C(=O)OCc2c1cc1n(c2=O)Cc2cc3ccccc3nc2-1 [CAMPTOTHECIN, Camptothecin] | 2 (2 = Concentration related increase with maximum values ≧15 pg/mL) | 1 (1 = Modest increase with maximum values ≦15 pg/mL) | 1 (1 = Modest increase with maximum values ≦15 pg/mL) | 0 | 213 µM | 41 µM | 0 | 0 | 1 (1 = Modest increase with maximum values ≦15 pg/mL) | 
C=C(C)[C@H]1Cc2c(ccc3c2O[C@@H]2COc4cc(OC)c(OC)cc4[C@@H]2C3=O)O1 [ROTENONE, Rotenone] | 1 (1 = Modest increase with maximum values ≦15 pg/mL) | 0 | 2 (2 = Concentration related increase with maximum values ≧15 pg/mL) | 0 |  |  | 3 (3 = Concentration related increase with a maximum value ≧30 pg/mL) | 2 (2 = Concentration related increase with maximum values ≧15 pg/mL) | 3 (3 = Concentration related increase with a maximum value ≧30 pg/mL) | 3 µM
